Results published in patent US11369565B2, “Amino-pyrimidine skeletal muscle modulators” (Cytokinetics, Inc., priority 2010, dated 2022).

These compounds were tested on rabbit skeletal myofibrils (approximately 90% fast fibers) (assay: Activation of fast skeletal myofibrils (PUMA coupled-enzyme ATPase assay at pCa25)). Conditions: concentration at which the compound increased the enzymatic activity by 40%; calcium at pCa25; PM12 buffer pH 6.8.
Type: biochemical
Outline: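 In pH 6.8 PM12 buffer (12 mM Pipes, 2 mM MgCl2, 1 mM DTT), ADP from myosin regenerated via pyruvate kinase/lactate dehydrogenase, with absorbance change at 340 nm from NADH oxidation as read-out. Calcium set at pCa25; Triton-washed rabbit skeletal myofibrils (about 90% fast fibres) used.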

SMILES | Mean AC1.4
CC(C)(C)OC(=O)NCc1cnc(-c2cnc(NCC3(c4ncccc4F)CCC3)nc2)s1 [(tert-butoxy)-N-({2-[2-({[(3-fluoro(2-pyridyl))cyclobutyl]methyl}amino)pyrimidin-5-yl](1,3-thiazol-5-yl)}methyl)carboxamide] | B (B=1-10 uM)
CC(C)(C)OC(=O)NCc1cnc(-c2cnc(NCC3(c4ccccn4)CCC3)nc2)s1 [(tert-butoxy)-N-{[2-(2-{[(2-pyridylcyclobutyl)methyl]amino}pyrimidin-5-yl)(1,3-thiazol-5-yl)]methyl}carboxamide] | B (B=1-10 uM)
CS(=O)(=O)NCc1cnc(-c2cnc(NCC3(c4ncccc4F)CCC3)nc2)s1 [({2-[2-({[(3-fluoro(2-pyridyl))cyclobutyl]methyl}amino)pyrimidin-5-yl](1,3-thiazol-5-yl)}methyl)(methylsulfonyl)amine] | B (B=1-10 uM)
CC(=O)N1CC(NC(=O)c2cccc(-c3cnc(NC[C@]4(c5ncccc5F)C[C@H](F)C4)nc3)c2)C1 [N-(1-acetylazetidin-3-yl){3-[2-({[3-fluoro-1-(3-fluoro(2-pyridyl))cyclobutyl]methyl}amino)pyrimidin-5-yl]phenyl}carboxamide] | B (B=1-10 uM)
CC(C)(Nc1ncc(-n2cc(C(=O)NCCC(N)=O)cn2)cn1)c1ncccc1Cl [N-(2-carbamoylethyl)[1-(2-{[1-(3-chloro)(2-pyridyl))-isopropyl]amino}pyrimidin-5-yl)pyrazol-4-yl]carboxamide] | D (D=>20 uM)
CC(=O)NCc1cnc(-c2cnc(NCC3(c4ncccc4Cl)CCC3)nc2)s1 [N-({2-[2-({[(3-chloro-2-pyridyl)cyclobutyl]methyl}amino)pyrimidin-5-yl]-1,3-thiazol-5-yl}methyl)acetamide] | A (A=<1 uM)
CC(=O)NCc1cnc(-c2cnc(NCC3(c4ncccc4F)CCC3)nc2)s1 [N-({2-[2-({[(3-fluoro-2-pyridyl)cyclobutyl]methyl}amino)pyrimidin-5-yl]-1,3-thiazol-5-yl}methyl)acetamide] | B (B=1-10 uM)
CC(C)(CNC(=O)c1cnc(NCC(C)(C)c2ccc(F)cc2)nc1)c1ccc(F)cc1 [N-[2-(4-fluorophenyl)-2-methylpropyl](2-{[2-(4-fluorophenyl)-2-methylpropyl]amino}pyrimidin-5-yl)carboxamide] | D (D=>20 uM)
O=C(Nc1cnc(NCC2(c3ncccc3F)CCC2)nc1)c1nccs1 [N-[2-(([(3-fluoro(2-pyridyl))cyclobutyl]methyl}amino)pyrimidin-5-yl]-1,3-thiazol-2-ylcarboxamide] | D (D=>20 uM)
O=C(NC1(c2ccc(F)cc2)CCC1)c1cnc(NC2(c3ccc(F)cc3)CCC2)nc1C(F)(F)F [N-[(4-fluorophenyl)cyclobutyl](2-{[(4-fluorophenyl)cyclobutyl]amino}-4-(trifluoromethyl)pyrimidin-5-yl)carboxamide] | D (D=>20 uM)
CCNC(=O)c1cnc(NCC2(c3ncccc3F)CCC2)nc1 [N-ethyl[2-({[(3-fluoro(2-pyridyl))cyclobutyl]methyl}amino)pyrimidin-5-yl] carboxamide] | D (D=>20 uM)
CC(=O)Nc1ccccc1-c1cnc(NC[C@]2(c3ncccc3F)C[C@H](F)C2)nc1 [N-{2-[2-({[3-fluoro-1-(3-fluoro(2-pyridyl))cyclobutyl]methyl}amino)pyrimidin-5-yl]phenyl}acetamide] | D (D=>20 uM)
CC(C)(C)OC(=O)NCCNC(=O)c1cnc(NCC2(c3ncccc3F)CCC2)nc1 [N-{2-[(tert-butoxy)carbonylamino]ethyl}[2-({[(3-fluoro(2-pyridyl))cyclobutyl]methyl}amino)pyrimidin-5-yl]carboxamide] | D (D=>20 uM)
CC(=O)NCc1cnc(-c2cnc(NC(C)(C)c3ncccc3Cl)nc2)s1 [N-{[2-(2-{[1-(3-chloro(2-pyridyl))-isopropyl]amino)}pyrimidin-5-yl)-1,3-thiazol-5-yl]methyl]acetamide] | C (C=10-20 uM)
CC(C)(Nc1ncc(-c2ncc(CNC(=O)c3c[nH]c(O)n3)s2)cn1)c1ncccc1Cl [N-{[2-(2-{[1-(3-chloro(2-pyridyl))-isopropyl]amino}pyrimidin-5-yl)(1,3-thazol-5-yl)]methyl}(2-hydroxyimidazol-4-yl)carboxamide] | B (B=1-10 uM)
CC(C)(Nc1ncc(-c2ncc(CNC(=O)c3cnc[nH]3)s2)cn1)c1ncccc1F [N-{[2-(2-{[1-(3-fluoro(2-pyridyl))-isopropyl]amino}pyrimidin-5-yl)(1,3-thiazol-5-yl)]methyl}imidazol-5-ylcarboxamide] | D (D=>20 uM)
CC(=O)NCc1ccc(-c2cnc(NC(C)(C)c3ncccc3F)nc2)cc1 [N-{[4-(2-{[1-(3-fluoro(2-pyridyl))-isopropyl}amino}pyrimidin-5-yl)phenyl]methyl}acetamide] | D (D=>20 uM)
CC(C)(Nc1nccc(-c2nccs2)n1)c1ncccc1Cl [[1-(3-chloro(2-pyridyl))-isopropyl](4-(1,3-thiazol-2-yl)pyrimidin-2-yl)amine] | D (D=>20 uM)
CC(C)(Nc1ncc(-c2nccs2)cn1)c1ncccc1Cl [[1-(3-chloro(2-pyridyl))-isopropyl](5-(1,3-thiazol-2-yl)pyrimidin-2-yl)amine] | B (B=1-10 uM)
CC(C)(Nc1ncc(-c2cnc3cc[nH]c3c2)cn1)c1ncccc1Cl [[1-(3-chloro(2-pyridyl))-isopropyl](5-pyrrolo[3,2-b]pyridin-6-ylpyrimidin-2-yl)amine] | A (A=<1 uM)
CC(C)(Nc1ncccn1)c1ncccc1Cl [[1-(3-chloro(2-pyridyl))-isopropyl]pyrimidin-2-ylamine] | D (D=>20 uM)
COCCNc1nc(NC[C@]2(c3ncccc3F)C[C@H](F)C2)ncc1-c1ccccc1 [[2-({[3-fluoro-1-(3-fluoro(2-pyridyl))cyclobutyl]methyl}amino-5-phenylpyrimidin-4-yl](2-methoxyethyl)amine] | D (D=>20 uM)
CN(C)c1nc(NC[C@]2(c3ncccc3F)C[C@H](F)C2)ncc1-c1ccccc1 [[2-({[3-fluoro-1-(3-fluoro(2-pyridyl))cyclobutyl]methyl}amino-5-phenylpyrimidin-4-yl]dimethylamine] | D (D=>20 uM)

Now from value to compound:

Mean AC1.4 | SMILES
B (B=1-10 uM) | CC(=O)N1CC(NC(=O)c2ccc(F)c(-c3cnc(NC[C@]4(c5ncccc5F)C[C@H](F)C4)nc3)c2)C1 [N-(1-acetylazetidin-3-yl) {4-fluoro-3-[2-({[3-fluoro-1-(3-fluoro(2-pyridyl))cyclobutyl]methyl}aminopyrimidin-5-yl]phenyl}carboxamide]
D (D=>20 uM) | CC(=O)NCCNC(=O)c1cnc(NCC2(c3ncccc3F)CCC2)nc1 [N-(2-{[2-({[(3-fluoro-2-pyridyl)cyclobutyl]methyl}amino)pyrimidin-5-yl]carbonylamino}ethyl)acetamide]
D (D=>20 uM) | CC(C)(C)NC(=O)c1cc(-c2cnc(NC(C)(C)c3ncccc3Cl)nc2)cnn1 [N-(tert-butyl)[5-(2-{[1-(3-chloro(2-pyridyl))-isapropyl]amino}pyrimidin-5-yl)pyridazin-3-yl]carboxamide]
B (B=1-10 uM) | CC(=O)Nc1n[nH]c2ccc(-c3cnc(NC(C)(C)c4ncccc4Cl)nc3)cc12 [N-[5-(2-{[1-(3-chloro(2-pyridyl))-isopropyl]amina}pyrimidin-5-yl)-1H-indazol-3-yl]acetamide]
D (D=>20 uM) | CC(=O)NCc1cnn(-c2cnc(NC(C)(C)c3ncccc3Cl)nc2)c1 [N-{[1-(2-{[1-(3-chloro(2-pyridyl))-isopropyl]amino}pyrimidin-5-yl)pyrazol-4-yl)]methyl}acetamide]
C (C=10-20 uM) | CC(C)(O)C(=O)NCc1cnc(-c2cnc(NC(C)(C)c3ncccc3Cl)nc2)s1 [N-{[2-(2-{[1-(3-chloro(2-pyridyl))-isopropyl}amino}pyrimidin-5-yl)(1,3-thiazol-5-yl)]methyl]-2-hydroxy-2-methylpropanamide]
D (D=>20 uM) | CC(=O)NCc1cnc(-c2cnc(NC(C)(C)c3ncccc3F)nc2)s1 [N-{[2-(2-{[1-(3-fluoro(2-pyridyl))-isopropyl]amino}pyrimidin-5-yl)-1,3-thiazol-5-yl]methyl}acetamide]
C (C=10-20 uM) | CC(C)(Nc1ncc(-c2ncc(CNC(=O)c3cnc(O)[nH]3)s2)cn1)c1ncccc1F [N-{[2-(2-{[1-(3-fluoro(2-pyridyl))-isopropyl}amino}pyrimidin-5-yl)(1,3-thiazol-5-yl)]methyl}(2-hydroxyimidazol-5-yl)carboxamide]
C (C=10-20 uM) | CC(=O)NCc1cccc(-c2cnc(NC(C)(C)c3ncccc3F)nc2)c1 [N-{[3-(2-{[1-(3-fluoro(2-pyridyl))-isopropyl]amino}pyrimidin-5-yl)phenyl]methyl}acetamide]
D (D=>20 uM) | CC(C)(Nc1ncc(-n2cc(C(=O)NCCO)cn2)cn1)c1ncccc1Cl [[1-(2-{[1-(3-chloro(2-pyridyl))-isopropyl]amino}pyrimidin-5-yl)pyrazol-4-yl]-N-(2-hydroxyethyl)carboxamide]
D (D=>20 uM) | CC(C)(Nc1ncc(-c2ncno2)cn1)c1ncccc1Cl [[1-(3-chloro(2-pyridyl))-isopropyl](5-(1,2,4-oxadiazol-5-yl)pyrimidin-2-yl)amine]
B (B=1-10 uM) | CC(C)(Nc1ncc(-c2cn[nH]c2)cn1)c1ncccc1Cl [[1-(3-chloro(2-pyridyl))-isopropyl](5-pyrazol-4-ylpyrimidin-2-yl)amine]
D (D=>20 uM) | CN1CCc2nc(NCC(C)(C)c3ccc(F)cc3)ncc2C1 [[2-(4-fluorophenyl)-2-methylpropyl](6-methyl (5,6,7,8-tetrahydropyridino [4,3-d]pyrimidin-2-yl))amine]
D (D=>20 uM) | CC(C)(CNc1ncc2c(n1)CCNC2)c1ccc(F)cc1 [[2-(4-fluorophenyl)-2-methylpropyl]-5,6,7,8-tetrahydropyridino[4,3-d]pyrimidin-2-ylamine]
